Biological target: T1, CFTR channels (Homo sapiens, UniProt P13569)
T1 construct: 1835; Cap1; TEV; Yes; XBG; 53; expressed in transfected cells; host or cells: FRT (Fischer rat thyroid) cells in air-liquid interface culture, transfected with unformulated hCFTR mRNA
Assay: Transepithelial conductance (Gt) in Air-Liquid Interface culture of transfected FRT cells
Assay type: cell-based
Settings: FRT cells transfected with constructs 2099.1 and 1835.1 (FIG. 12); sequential Forskolin, VX770, Inh-172
Description: Further studies were conducted to assess the activity of hCFTR proteins expressed by selected mRNA constructs and whether these can properly open and close to allow proper ion transport. In these studies, an Air-Liquid Interface (ALI) cell culture model of FRT cells was used to transfect an unformulated subset of codon-optimized hCFTR mRNAs at different doses ranging from 0.5 μg-2 μg of mRNA (the 2 μg dose is not shown) into the FRT cells. ALI is a method of cell culture by which polarized cells are generated with their basal surfaces in contact with media, and the top of the cellular layer is exposed to the air. This model helps to mimic the cellular structure of in vivo airways.
At 24 hours post-transfection, transepithelial conductance (Gt) of the cells over time was measured as an indicator of CFTR activity. Initially, Gt was measured with the transfected or control cells unperturbed. Then, a sequential process of CFTR activation (channel opening), enhancement (gating promotion) and closing of the CFTR channels was performed. The hCFTR constructs used in this study were 1835.1 (SEQ ID NO: 53), 2093.1 (SEQ ID NO: 66), 2095.1 (SEQ ID NO: 68), 2096.1 (SEQ ID NO: 69), and 2099.1 (SEQ ID NO: 72). In addition, controls were performed using a reference sequence of construct 764.1 (SEQ ID NO: 47) and untransfected cells. […]

T1 sequence (P13569 whole entry): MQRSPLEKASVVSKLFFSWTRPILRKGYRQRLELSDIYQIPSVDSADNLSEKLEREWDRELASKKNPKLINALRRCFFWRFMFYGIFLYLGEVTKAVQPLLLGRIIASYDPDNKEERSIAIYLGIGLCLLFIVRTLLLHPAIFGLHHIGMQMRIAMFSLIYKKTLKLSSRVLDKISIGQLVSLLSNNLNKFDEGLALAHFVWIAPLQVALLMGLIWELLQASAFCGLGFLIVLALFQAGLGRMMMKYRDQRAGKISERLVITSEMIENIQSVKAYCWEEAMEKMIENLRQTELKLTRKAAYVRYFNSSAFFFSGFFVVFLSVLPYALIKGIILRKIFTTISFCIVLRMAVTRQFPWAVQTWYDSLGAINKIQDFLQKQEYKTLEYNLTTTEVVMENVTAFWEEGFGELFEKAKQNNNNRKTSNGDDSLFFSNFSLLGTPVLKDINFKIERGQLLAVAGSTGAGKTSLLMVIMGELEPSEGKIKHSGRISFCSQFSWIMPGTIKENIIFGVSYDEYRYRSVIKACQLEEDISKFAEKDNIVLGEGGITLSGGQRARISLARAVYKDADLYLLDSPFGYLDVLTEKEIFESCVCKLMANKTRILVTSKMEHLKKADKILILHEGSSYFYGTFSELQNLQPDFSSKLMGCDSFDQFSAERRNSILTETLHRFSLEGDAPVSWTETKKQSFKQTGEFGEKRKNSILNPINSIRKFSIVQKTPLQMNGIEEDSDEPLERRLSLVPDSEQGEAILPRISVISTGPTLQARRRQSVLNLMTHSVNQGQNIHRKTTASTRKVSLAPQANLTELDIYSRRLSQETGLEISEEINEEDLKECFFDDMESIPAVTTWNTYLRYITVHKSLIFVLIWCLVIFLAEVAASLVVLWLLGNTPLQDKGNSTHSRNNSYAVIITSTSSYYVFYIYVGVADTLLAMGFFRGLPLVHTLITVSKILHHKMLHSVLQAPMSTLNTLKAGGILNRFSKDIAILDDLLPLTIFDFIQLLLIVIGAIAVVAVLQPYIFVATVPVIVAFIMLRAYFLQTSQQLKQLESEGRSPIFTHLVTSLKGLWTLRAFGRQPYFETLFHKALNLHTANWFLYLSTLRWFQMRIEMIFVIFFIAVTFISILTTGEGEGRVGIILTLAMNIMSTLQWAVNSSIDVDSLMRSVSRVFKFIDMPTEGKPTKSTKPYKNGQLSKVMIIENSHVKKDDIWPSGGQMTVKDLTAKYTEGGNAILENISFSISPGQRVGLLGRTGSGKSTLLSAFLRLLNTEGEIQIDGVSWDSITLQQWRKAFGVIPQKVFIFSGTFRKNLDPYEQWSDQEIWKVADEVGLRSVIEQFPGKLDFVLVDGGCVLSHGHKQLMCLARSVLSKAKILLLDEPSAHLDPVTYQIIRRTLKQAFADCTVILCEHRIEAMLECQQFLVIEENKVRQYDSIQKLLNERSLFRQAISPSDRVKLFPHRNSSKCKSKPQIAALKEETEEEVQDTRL

O=C(O)c1ccc(C=C2SC(=S)N(c3cccc(C(F)(F)F)c3)C2=O)cc1 [Inh-172, reference compound]
Change in Gt on introduction of CFTR modulator: decline in Gt

CC(C)(C)c1cc(C(C)(C)C)c(NC(=O)c2c[nH]c3ccccc3c2=O)cc1O [VX770, reference compound]
Change in Gt on introduction of CFTR modulator: second increase in Gt

Reference: patent US12070509B2, “Nucleic acids and methods of treatment for cystic fibrosis” (Arcturus Therapeutics, Inc., priority 2020, dated 2024)
